As a reminder, the IC50 is the concentration needed to halve the response being measured.

T1 sequence (Q9UM07 2-663): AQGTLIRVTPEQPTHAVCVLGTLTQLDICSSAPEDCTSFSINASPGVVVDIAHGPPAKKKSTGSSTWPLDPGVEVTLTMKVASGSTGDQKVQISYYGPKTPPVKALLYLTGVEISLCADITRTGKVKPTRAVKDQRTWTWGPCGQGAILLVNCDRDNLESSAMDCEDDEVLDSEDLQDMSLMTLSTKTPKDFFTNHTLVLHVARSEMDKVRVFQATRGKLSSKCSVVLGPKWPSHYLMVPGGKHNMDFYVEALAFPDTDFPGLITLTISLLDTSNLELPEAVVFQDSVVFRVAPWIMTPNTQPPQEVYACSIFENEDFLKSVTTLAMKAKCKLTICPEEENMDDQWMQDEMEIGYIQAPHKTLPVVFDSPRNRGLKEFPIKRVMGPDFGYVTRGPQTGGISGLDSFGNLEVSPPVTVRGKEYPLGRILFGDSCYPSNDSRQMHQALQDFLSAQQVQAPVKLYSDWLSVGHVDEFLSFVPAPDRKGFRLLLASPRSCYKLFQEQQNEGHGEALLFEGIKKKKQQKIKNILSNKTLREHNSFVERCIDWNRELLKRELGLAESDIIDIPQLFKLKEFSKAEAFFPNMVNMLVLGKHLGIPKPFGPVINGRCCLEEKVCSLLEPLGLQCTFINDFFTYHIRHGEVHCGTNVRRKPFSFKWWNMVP

This assay addresses T1, human PAD4 (Homo sapiens, UniProt Q9UM07).
T1 construct: human PAD4 (NM_012387), A2P663, was PCR amplified; His-SUMO (N, cleaved yes); made in house; host or cells: E. coli BL21(DE3)
As to the kind of experiment: In vitro PAD4 BAEE biochemical assay. Particulars: human PAD4, BAEE substrate; 5 nM PAD4, 2 mM calcium chloride, 3 mM BAEE; geometric mean of multiple experiments. Put shortly:
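Ammonia generated from BAEE serves as the readout, measured by o-phthalaldehyde after EDTA termination. Final conditions: 5 nM human PAD4 (SUMO tag cleaved), 2 mM CaCl2, 3 mM BAEE, pH 7.6 MOPS buffer, 25 °C for 2 h following a 30-min compound preincubation.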
`COc1cc(C(=O)N2[C@H]3CC[C@@H]2[C@H](N)C3)cc2nc(-c3cc4ccc([C@@H](C)NC(=O)c5cncs5)nc4n3CC3CC3)c(C)n12` [Example 72, ~{N}-[(1~{R})-1-[2-[7-[(1~{R},2~{R},4~{S})-2-amino-7-azabicyclo[2.2.1]heptane-7-carbonyl]-5-methoxy-3-methylimidazo [1,2-a]pyridin-2-yl]-1-(cyclopropylmethyl)pyrrolo [2,3-b]pyridin-6-yl]ethyl]-1,3-thiazole-5-carboxamide]: the IC50 was found to be 0.0327 µM. Consider “[(1~{R},2~{R},4~{S})-2- amino-7-azabicyclo [2.2.1]heptan-7-yl]-[2-[1- (cyclopropylmethyl)-6-(6- hydroxy-2-methylpyridin- 3-yl)pyrrolo[2,3-b] pyridin-2-yl]-5-methoxy-3- methylimidazo[1,2-a] pyridin-7-yl]methanone [Example 563]”, for which the IC50 came out at 0.106 µM. As to `COc1cc(C(=O)N2[C@H]3CC[C@@H]2[C@H](N)C3)cc2nc(-c3cc4ccc([C@@H](C)NC(=O)C(C)(C)C)nc4n3CC34CC(C3)C4)c(C3CC3)n12` [Example 486, N—((R)-1-(2-(7-((1R,2R,4S)-2-amino-7-azabicyclo[2.2.1]heptane-7-carbonyl)-3-cyclopropyl-5-methoxyimidazo[1,2-a]pyridin-2-yl)-1-(bicyclo[1.1.1]pentan-1-ylmethyl)-1H-pyrrolo[2,3-b]pyridin-6-yl)ethyl)pivalamide], the IC50 was 0.666 µM. For the compound `COc1cc(C(=O)N2[C@H]3CC[C@@H]2[C@H](N)C3)cc2nc(-c3cc4ccc([C@@H](C)N5CCOCC5=O)nc4n3CC3CC3)c(C)n12` [Example 274, 4-[(1~{R})-1-[2-[7-[(1~{R},2~{R},4~{S})-2-amino-7-azabicyclo[2.2.1]heptane-7-carbonyl]-5-methoxy-3-methylimidazo [1,2-a]pyridin-2-yl]-1-(cyclopropylmethyl)pyrrolo [2,3-b]pyridin-6-yl]ethyl]morpholin-3-one], the IC50 is 0.252 µM. Consider `COc1cc(C(=O)N2[C@H]3CC[C@@H]2[C@H](N)C3)cc2nc(-c3cc4ccc([C@@H](C)N5CCNC5=O)nc4n3CC3CC3)c(C)n12` [Example 273, 1-[(1~{R})-1-[2-[7-[(1~{R},2~{R},4~{S})-2-amino-7-azabicyclo[2.2.1]heptane-7-carbonyl]-5-methoxy-3-methylimidazo [1,2-a]pyridin-2-yl]-1-(cyclopropylmethyl)pyrrolo [2,3-b]pyridin-6-yl]ethyl] imidazolidin-2-one], for which the IC50 was 0.0831 µM. Take `COc1cc(C(=O)N2[C@H]3CC[C@@H]2[C@H](N)C3)cc2nc(-c3cc4ccc([C@@H](C)NC(=O)c5cnn(C(C)(C)C)c5)nc4n3CC3CC3)c(C)n12` [Example 82, ~{N}-[(1~{R})-1-[2-[7-[(1~{R},2~{R},4~{S})-2-amino-7-azabicyclo[2.2.1]heptane-7-carbonyl]-5-methoxy-3-methylimidazo [1,2-a]pyridin-2-yl]-1-(cyclopropylmethyl)pyrrolo [2,3-b]pyridin-6-yl]ethyl]-1-~{tert}-butylpyrazole-4-carboxamide]: the IC50 came out at 0.0512 µM. The same measure for `COc1cc(C(=O)N2[C@H]3CC[C@@H]2[C@H](N)C3)cc2nc(-c3cc4ccc([C@@H](C)N5CCOCC5)nc4n3CC3CC3)c(C)n12` [Example 277, [(1~{R},2~{R},4~{S})-2-amino-7-azabicyclo [2.2.1]heptan-7-yl]-[2-[1-(cyclopropylmethyl)-6-[(1~{R})-1-morpholin-4-ylethyl]pyrrolo[2,3-b]pyridin-2-yl]-5-methoxy-3-methylimidazo[1,2-a]pyridin-7-yl]methanone]: 0.191 µM; for `COc1cc(C(=O)N2CCC[C@@H](N)C2)cc2nc(-c3cc4ccc([C@@H](C)NC(=O)C56CC(C#N)(C5)C6)nc4n3CC3CC3)c(C3CC3)n12` [Example 139, ~{N}-[(1~{R})-1-[2-[7-[(3~{R})-3-aminopiperidine-1-carbonyl]-3-cyclopropyl-5-methoxyimidazo [1,2-a]pyridin-2-yl]-1-(cyclopropylmethyl)pyrrolo [2,3-b]pyridin-6-yl]ethyl]-3-cyanobicyclo[1.1.1]pentane-1-carboxamide]: 0.208 µM; for `COc1cc(C(=O)N2[C@H]3CC[C@@H]2[C@H](N)C3)cc2nc(-c3cc4ccc(N5[C@@H](C(F)(F)F)CCCS5(=O)=O)nc4n3CC3CC3)c(C)n12` [Example 447, [(1~{R},2~{R},4~{S})-2-amino-7-azabicyclo [2.2.1]heptan-7-yl]-[2-[1-(cyclopropylmethyl)-6-[(3~{R})-1,1-dioxo-3-(trifluoromethyl)thiazinan-2-yl]pyrrolo[2,3-b]pyridin-2-yl]-5-methoxy-3-methylimidazo[1,2-a]pyridin-7-yl]methanone]: 0.187 µM. Turning to `COc1cc(C(=O)N2CCC[C@@H](N)C2)cc2nc(-c3cc4ccc([C@@H](C)NC(=O)N5CCCC5)nc4n3CC3CC3)c(C)n12` [Example 252, ~{N}-[(1~{R})-1-[2-[7-[(3~{R})-3-aminopiperidine-1-carbonyl]-5-methoxy-3-methylimidazo [1,2-a]pyridin-2-yl]-1-(cyclopropylmethyl)pyrrolo [2,3-b]pyridin-6-yl]ethyl] pyrrolidine-1-carboxamide], the IC50 is 0.0981 µM. On to `COc1cc(C(=O)N2[C@H]3CC[C@@H]2[C@H](N)C3)cc2nc(-c3cc4ccc(-c5cccnc5-c5cncs5)nc4n3CC3CC3)c(C)n12` [Example 567, [(1~{R},2~{R},4~{S})-2-amino-7-azabicyclo [2.2.1]heptan-7-yl]-[2-[1-(cyclopropylmethyl)-6-[2-(1,3-thiazol-5-yl)pyridin-3-yl]pyrrolo[2,3-b]pyridin-2-yl]-5-methoxy-3-methylimidazo[1,2-a]pyridin-7-yl]methanone], for which the IC50 came to 0.114 µM. As to `COc1cc(C(=O)N2[C@H]3CC[C@@H]2[C@H](N)C3)cc2nc(-c3cc4ccc([C@@H](C)NC(=O)N5CC(C#N)C5)nc4n3CC3CC3)c(C)n12` [Example 234, ~{N}-[(1~{R})-1-[2-[7-[(1~{R},2~{R},4~{S})-2-amino-7-azabicyclo[2.2.1]heptane-7-carbonyl]-5-methoxy-3-methylimidazo [1,2-a]pyridin-2-yl]-1-(cyclopropylmethyl)pyrrolo [2,3-b]pyridin-6-yl]ethyl]-3-cyanoazetidine-1-carboxamide], the IC50 amounted to 0.149 µM. For the compound `COc1cc(C(=O)N2[C@H]3CC[C@@H]2[C@H](N)C3)cc2nc(-c3cc4ccc([C@@H](C)NC(=O)N5CCC5)nc4n3CC34CC(C3)C4)c(C)n12` [Example 488], the IC50 was 0.0868 µM. On to `COc1cc(C(=O)N2[C@H]3CC[C@@H]2[C@H](N)C3)cc2nc(-c3cc4ccc([C@@H](C)NC(=O)CCC(=O)O)nc4n3CC3CC3)c(C)n12` [Example 163, 4-[[(1~{R})-1-[2-[7-[(1~{R},2~{R},4~{S})-2-amino-7-azabicyclo[2.2.1]heptane-7-carbonyl]-5-methoxy-3-methylimidazo [1,2-a]pyridin-2-yl]-1-(cyclopropylmethyl)pyrrolo [2,3-b]pyridin-6-yl]ethyl]amino]-4-oxobutanoic acid], for which the IC50 turned out to be 0.0191 µM. In the case of `COc1cc(C(=O)N2[C@@H]3CC[C@H]2[C@@H](N)[C@@H](O)C3)cc2nc(-c3cc4ccc(N(C(F)F)S(C)(=O)=O)nc4n3CC3CC3)c(C)n12` [Example 414, ~{N}-[2-[7-[(1~{S}, 2~{R},3~{S},5~{R})-2-amino-3-hydroxy-8-azabicyclo[3.2.1]octane-8-carbonyl]-5-methoxy-3-methylimidazo [1,2-a]pyridin-2-yl]-1-(cyclopropylmethyl)pyrrolo [2,3-b]pyridin-6-yl]-~{N}-(difluoromethyl) methanesulfonamide], the IC50 was 5.25 µM. As to `COc1cc(C(=O)N2[C@H]3CC[C@@H]2[C@H](N)C3)cc2nc(-c3cc4ccc([C@@H](C)NC(=O)CC(C)(C)C(=O)O)nc4n3CC3CC3)c(C)n12` [Example 161, 4-[[(1~{R})-1-[2-[7-[(1~{R},2~{R},4~{S})-2-amino-7-azabicyclo[2.2.1]heptane-7-carbonyl]-5-methoxy-3-methylimidazo [1,2-a]pyridin-2-yl]-1-(cyclopropylmethyl)pyrrolo [2,3-b]pyridin-6-yl]ethyl]amino]-2,2-dimethyl-4-oxobutanoic acid], the IC50 came to 0.0798 µM.

With `COc1cc(C(=O)N2[C@H]3CC[C@@H]2[C@H](N)C3)cc2nc(-c3cc4ccc([C@@H](C)NC(=O)C5C(C)(C)C5(F)F)nc4n3CC3CC3)c(C)n12` (stereo partly shown) [Example 103, ~{N}-[(1~{R})-1-[2-[7-[(1~{R},2~{R},4~{S})-2-amino-7-azabicyclo[2.2.1]heptane-7-carbonyl]-5-methoxy-3-methylimidazo [1,2-a]pyridin-2-yl]-1-(cyclopropylmethyl)pyrrolo [2,3-b]pyridin-6-yl]ethyl]-2,2-difluoro-3,3-dimethylcyclopropane-1-carboxamide], the IC50 turned out to be 0.0666 µM.

As for `CCc1ccc2cc(-c3nc4cc(C(=O)N5[C@H]6CC[C@@H]5[C@H](N)C6)cc(OC)n4c3C)n(Cc3ccncc3)c2n1` [Example 507, [(1~{R},2~{R},4~{S})-2-amino-7-azabicyclo [2.2.1]heptan-7-yl]-[2-[6-ethyl-1-(pyridin-4-ylmethyl)pyrrolo[2,3-b]pyridin-2-yl]-5-methoxy-3-methylimidazo[1,2-a]pyridin-7-yl]methanone], the IC50 came to 0.152 µM.

Regarding `COc1cc(C(=O)N2CCC[C@@H](N)C2)cc2nc(-c3cc4ccc([C@@H](C)NC(=O)c5ccccc5)nc4n3CC3CC3)c(C3CC3)n12` [Example 141, ~{N}-[(1~{R})-1-[2-[7-[(3~{R})-3-aminopiperidine-1-carbonyl]-3-cyclopropyl-5-methoxyimidazo [1,2-a]pyridin-2-yl]-1-(cyclopropylmethyl)pyrrolo [2,3-b]pyridin-6-yl]ethyl] benzamide], the IC50 was 0.187 µM.

Source of the values: patent US12240862B2, “Inhibitors of peptidylarginine deiminases” (Gilead Sciences, Inc., priority 2020, dated 2025).
